Measurements published in paper PMC10796634, “Discovery of plant chemical defence mediated by a two-component system involving β-glucosidase in Panax species” (Nature Communications, 2024).

System: PnGH1
Assay: HPLC quantification of product Fd, Michaelis-Menten fit
Format: biochemical, Panax notoginseng
Settings: pH 5.0 (50 mM Tris-HCl), 60 °C, 30 min, 30–8000 µM Rb3

Km: 677 ± 38.5 µM
Compound: CC(C)=CCC[C@](C)(O[C@@H]1O[C@H](CO[C@@H]2OC[C@@H](O)[C@H](O)[C@H]2O)[C@@H](O)[C@H](O)[C@H]1O)[C@H]1CC[C@]2(C)[C@@H]1[C@H](O)C[C@@H]1[C@@]3(C)CC[C@H](O[C@@H]4O[C@H](CO)[C@@H](O)[C@H](O)[C@H]4O[C@@H]4O[C@H](CO)[C@@H](O)[C@H](O)[C@H]4O)C(C)(C)[C@@H]3CC[C@]12C [compound 4, Rb3]
